Laboratory results from patent publication US10927078B2, “Modulators of indoleamine 2,3-dioxygenase” (GLAXOSMITHKLINE INTELLECTUAL PROPERTY DEVELOPMENT LIMITED, priority 2017, dated 2021).

The molecules below were run against indoleamine 2, 3-dioxygenase (IDO1) (Homo sapiens, UniProt P14902) (assay: PBMC IDO1 assay (kynurenine via mass spectrometry)). Conditions: not given.
Assay type: cell-based
Method: Compounds of the present invention were tested via high-throughput cellular assays utilizing detection of kynurenine via mass spectrometry and cytotoxicity as end-points. For the mass spectrometry and cytotoxicity assays, human peripheral blood mononuclear cells (PBMC) (PB003F; AllCells®, Alameda, Calif.) were stimulated with human interferon-γ (IFN-γ) (Sigma-Aldrich Corporation, St. Louis, Mo.) and lipopolysaccharide from Salmonella minnesota (LPS) (Invivogen, San Diego, Calif.) to induce the expression of indoleamine 2, 3-dioxygenase (IDO1). Compounds with IDO1 inhibitory properties decreased the amount of kynurenine produced by the cells via the tryptophan catabolic pathway. Cellular toxicity due to the effect of compound treatment was measured using CellTiter-Glo® reagent (CTG) (Promega Corporation, Madison, Wis.), which is based on luminescent detection of ATP, an indicator of metabolically active cells.
In preparation for the assays, test compounds were serially diluted 3-fold in DMSO from a typical top concentration of 5 mM and plated at 0.5 μL in 384-well, polystyrene, clear bottom, tissue culture treated plates with lids (Greiner Bio-One, Kremsmünster, Austria) to generate 11-point dose response curves. Low control wells (0% kynurenine or 100% cytotoxicity) contained either 0.5 μL of DMSO in the presence of unstimulated (-IFN-γ/-LPS) PBMCs for the mass spectrometry assay or 0.5 μL of DMSO in the absence of cells for the cytotoxicity assay, and high control wells (100% kynurenine or 0% cytotoxicity) contained 0.5 μL of DMSO in the presence of stimulated (+IFN-γ/+LPS) PBMCs for both the mass spectrometry and cytotoxicity assays.
Frozen stocks of PBMCs were washed and recovered in RPMI 1640 medium (Thermo Fisher Scientific, Inc., Waltham, Mass.) supplemented with 10% v/v heat-inactivated fetal bovine serum (FBS) (Thermo Fisher Scientific, Inc., Waltham, Mass.), and 1× penicillin-streptomycin antibiotic solution (Thermo Fisher Scientific, Inc., Waltham, Mass.). The cells were diluted to 1,000,000 cells/mL in the supplemented RPMI 1640 medium. 50 μL of either the cell suspension, for the mass spectrometry assay, or medium alone, for the cytotoxicity assay, were added to the low control wells, on the previously prepared 384-well compound plates, resulting in 50,000 cells/well or 0 cells/well respectively. IFN-γ and LPS were added to the remaining cell suspension at final concentrations of 100 ng/ml and 50 ng/ml respectively, and 50 μL of the stimulated cells were added to all remaining wells on the 384-well compound plates. The plates, with lids, were then placed in a 37° C., 5% CO2 humidified incubator for 2 days.
Following incubation, the 384-well plates were removed from the incubator and allowed to equilibrate to room temperature for 30 minutes. For the cytotoxicity assay, CellTiter-Glo® was prepared according to the manufacturer's instructions, and 40 μL were added to each plate well. After a twenty minute incubation at room temperature, luminescence was read on an EnVision® Multilabel Reader (PerkinElmer Inc., Waltham, Mass.). For the mass spectrometry assay, 10 μL of supernatant from each well of the compound-treated plates were added to 40 μL of acetonitrile, containing 10 μM of an internal standard for normalization, in 384-well, polypropylene, V-bottom plates (Greiner Bio-One, Kremsmünster, Austria) to extract the organic analytes. Following centrifugation at 2000 rpm for 10 minutes, 10 μL from each well of the acetonitrile extraction plates were added to 90 μL of sterile, distilled H2O in 384-well, polypropylene, V-bottom plates for analysis of kynurenine and the internal standard on the RapidFire 300 (Agilent Technologies, Santa Clara, Calif.) and 4000 QTRAP MS (SCIEX, Framingham, Mass.). MS data were integrated using Agilent Technologies' RapidFire Integrator software, and data were normalized for analysis as a ratio of kynurenine to the internal standard. […]

indoleamine 2, 3-dioxygenase (IDO1), sequence (P14902 whole entry): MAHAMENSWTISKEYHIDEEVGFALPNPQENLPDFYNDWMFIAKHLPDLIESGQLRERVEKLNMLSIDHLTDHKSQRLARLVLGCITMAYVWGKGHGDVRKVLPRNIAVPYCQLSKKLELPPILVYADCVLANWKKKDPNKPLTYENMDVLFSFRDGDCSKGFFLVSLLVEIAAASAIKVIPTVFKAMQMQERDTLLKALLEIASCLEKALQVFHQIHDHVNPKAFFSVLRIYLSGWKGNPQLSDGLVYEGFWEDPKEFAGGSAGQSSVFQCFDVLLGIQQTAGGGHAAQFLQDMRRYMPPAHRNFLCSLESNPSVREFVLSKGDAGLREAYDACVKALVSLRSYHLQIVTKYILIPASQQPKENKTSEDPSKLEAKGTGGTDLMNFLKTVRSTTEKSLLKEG

Compound	IC50 [nM]
COc1ncccc1OC(=O)N1CCC([C@H](NC(=O)c2ccc(Cl)cc2)c2ccccc2)CC1 [Example 49, 2-methoxypyridin-3-yl 4-[(S)-[(4-chlorophenyl)formamido](phenyl)methyl]piperidine-1-carboxylate]	10
CC(C)CC(NC(=O)c1ccc(Cl)cc1)C1CCN(C(=O)Oc2cccnc2C#N)CC1 (stereo not shown) [Example 5, 2-cyanopyridin-3-yl 4-{1-[(4-chlorophenyl)formamido]-3-methylbutyl}piperidine-1-carboxylate]	1.58
Cc1ncccc1OC(=O)N1CCC([C@H](NC(=O)c2ccc(Cl)cc2)c2ccccc2)CC1 [Example 14, 2-methylpyridin-3-yl 4-[(S)-[(4-chlorophenyl)formamido](phenyl)methyl]piperidine-1-carboxylate]	2.51
COc1ncccc1OC(=O)N1CCC(C(CC(C)C)NC(=O)c2ccc(F)cc2)CC1 (stereo not shown) [Example 30, 2-methoxypyridin-3-yl 4-{1-[(4-fluorophenyl)formamido]-3-methylbutyl}piperidine-1-carboxylate]	5.01
CC(C)CC(NC(=O)c1ccc(F)cc1)C1CCN(C(=O)Oc2cccnc2F)CC1 (stereo not shown) [Example 22, 2-fluoropyridin-3-yl 4-{1-[(4-fluorophenyl)formamido]-3-methylbutyl}piperidine-1-carboxylate]	3.98
Cc1ncccc1OC(=O)N1CCC([C@@H](CC(C)C)NC(=O)c2ccc(Cl)cc2)CC1 [Example 104, (R)-2-methylpyridin-3-yl 4-(1-(4-chlorobenzamido)-3-methylbutyl)piperidine-1-carboxylate]	1.26
CC(C)CC(NC(=O)c1ccc(F)cc1)C1CCN(C(=O)Oc2cncc(F)c2)CC1 (stereo not shown) [Example 45, 5-fluoropyridin-3-yl 4-{1-[(4-fluorophenyl)formamido]-3-methylbutyl}piperidine-1-carboxylate]	10

Same assay, conditions: human PBMC stimulated with IFN-γ and LPS, 2 days, kynurenine by mass spectrometry; recorded as pIC50; read-out: PBMC PXC50_ (converted)

IC50 [nM]	Compound
158	O=C(NC(C1CC1)C1CCN(C(=O)Oc2ccnc(F)c2)CC1)c1ccc(F)cc1 (stereo not shown) [Example 71, 2-fluoropyridin-4-yl 4-{cyclopropyl[(4-fluorophenyl)formamido]methyl}piperidine-1-carboxylate]
1000	C[C@H](NC(=O)c1ccc(Cl)s1)C1CCN(C(=O)Oc2ccccc2)CC1 [Example 95, phenyl 4-[(1S)-1-[(5-chlorothiophen-2-yl)formamido]ethyl]piperidine-1-carboxylate]
63.1	COc1ccc([C@@H](NC(=O)c2ccc(Cl)cc2)C2CCN(C(=O)Oc3ccccc3)CC2)cn1 [Example 111, (S)-phenyl 4-((4-chlorobenzamido)(6-methoxypyridin-3-yl)methyl)piperidine-1-carboxylate]
631	O=C(N[C@@H](C1CC1)C1CCN(C(=O)Oc2ccccc2)CC1)c1ccc(Cl)s1 [Example 91, phenyl 4-[(S)-[(5-chlorothiophen-2-yl)formamido](cyclopropyl)methyl]piperidine-1-carboxylate]
25.1	Cc1c(F)cccc1OC(=O)N1CCC([C@@H](C)NC(=O)c2ccccc2)CC1 [Example 56, 3-fluoro-2-methylphenyl 4-[(1R)-1-(phenylformamido)ethyl]piperidine-1-carboxylate]
501	CC(C)CC(NC(=O)c1ccc(F)cc1)C1CCN(C(=O)OC2CCNc3ccccc32)CC1 (stereo not shown) [Example 84, 1,2,3,4-tetrahydroquinolin-4-yl 4-{1-[(4-fluorophenyl)formamido]-3-methylbutyl}piperidine-1-carboxylate]
6.31	CC(C)C[C@@H](NC(=O)c1cccc2cn[nH]c12)C1CCN(C(=O)Oc2ccccc2)CC1 [Example 109, (R)-phenyl 4-(1-(1H-indazole-7-carboxamido)-3-methylbutyl)piperidine-1-carboxylate]
0.631	Cc1nccc(OC(=O)N2CCC([C@H](NC(=O)c3ccc(Cl)s3)c3ccccc3)CC2)c1C [Example 1, (S)-2,3-dimethylpyridin-4-yl 4-((5-chlorothiophene-2-carboxamido)(phenyl)methyl)piperidine-1-carboxylate]
20	COc1cccc(OC(=O)N2CCC(C(CC(C)C)NC(=O)c3ccc(F)cc3)CC2)c1 (stereo not shown) [Example 54, 3-methoxyphenyl 4-{1-[(4-fluorophenyl)formamido]-3-methylbutyl}piperidine-1-carboxylate]
3.98	O=C(N[C@H](C1CC1)C1CCN(C(=O)Oc2ccccc2)CC1)c1ccc(Cl)s1 [Example 23, phenyl 4-[(R)-[(5-chlorothiophen-2-yl)formamido](cyclopropyl)methyl]piperidine-1-carboxylate]
7.94	COCCC[C@@H](NC(=O)c1ccc(F)cc1)C1CCN(C(=O)Oc2cccc(F)c2C)CC1 [Example 42, 3-fluoro-2-methylphenyl 4-[(1R)-1-[(4-fluorophenyl)formamido]-4-methoxybutyl]piperidine-1-carboxylate]
3.98	Cc1nccc(OC(=O)N2CCC([C@H](NC(=O)c3ccc(Cl)cc3)c3ccccc3)CC2)c1C [Example 20, 2,3-dimethylpyridin-4-yl 4-[(S)-[(4-chlorophenyl)formamido](phenyl)methyl]piperidine-1-carboxylate]
5.01	Cc1ccc(C(=O)N[C@H](C2CC2)C2CCN(C(=O)Oc3ccnc(C)c3C)CC2)s1 [Example 32, 2,3-dimethylpyridin-4-yl 4-[(R)-cyclopropyl[(5-methylthiophen-2-yl)formamido]methyl]piperidine-1-carboxylate]
10	O=C(NC(c1ccccc1)C1CCN(C(=O)Oc2ccccc2)CC1)c1ccccc1 (stereo not shown) [Example 43, phenyl 4-[phenyl(phenylformamido)methyl]piperidine-1-carboxylate]
1580	CC(C)(C)OC(=O)N1CCC(C(NC(=O)c2ccccc2)c2ccccc2)CC1 (stereo not shown) [Example 98, tert-butyl 4-[phenyl(phenylformamido)methyl]piperidine-1-carboxylate]
50.1	CC(C)CC(NC(=O)c1ccc(F)cc1)C1CCN(C(=O)Oc2ccc(Cl)cc2)CC1 (stereo not shown) [Example 59, 4-chlorophenyl 4-{1-[(4-fluorophenyl)formamido]-3-methylbutyl}piperidine-1-carboxylate]
2	Cc1nccc(OC(=O)N2CCC([C@H](NC(=O)c3ccc(Cl)s3)C3CC3)CC2)c1C [Example 7, 2,3-dimethylpyridin-4-yl 4-[(R)-[(5-chlorothiophen-2-yl)formamido](cyclopropyl)methyl]piperidine-1-carboxylate]
5010	CC(C)(C)OC(=O)N1CCC(C(NC(=O)c2cccnc2)c2ccccc2)CC1 (stereo not shown) [Example 102, tert-butyl 4-{phenyl[(pyridin-3-yl)formamido]methyl}piperidine-1-carboxylate]
398	CC(C)OCC(NC(=O)c1ccc(F)cc1)C1CCN(C(=O)Oc2ccccc2)CC1 (stereo not shown) [Example 82, phenyl 4-{1-[(4-fluorophenyl)formamido]-2-(propan-2-yloxy)ethyl}piperidine-1-carboxylate]
316	Cc1c(F)cccc1OC(=O)N1CCC([C@@H](CCCO)NC(=O)c2ccc(F)cc2)CC1 [Example 80, 3-fluoro-2-methylphenyl 4-[(1R)-1-[(4-fluorophenyl)formamido]-4-hydroxybutyl]piperidine-1-carboxylate]
5.01	CC(C)C[C@@H](NC(=O)c1ccccc1)C1CCN(C(=O)Oc2ccccc2)CC1 [Example 25, phenyl 4-[(1R)-3-methyl-1-(phenylformamido)butyl]piperidine-1-carboxylate]
